Assays:
[1] = target: IKKε (Homo sapiens (Human), UniProt Q14164); assay: IKKε TR-FRET enzymatic assay; type: biochemical; conditions: TR-FRET, 2×Km ATP; geometric mean of minimum four determinations; read-out: IKKe IC50
[2] = target: TBK1 (Homo sapiens (Human), UniProt Q9UHD2); assay: TBK1 TR-FRET enzymatic assay;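 further: phosphorylation of a biotinylated Ser/Thr peptide by purified full-length recombinant TBK1, read by TR-FRET after 240 min at 25 °C, IC50 is the geometric mean of at least four runs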
[3] = target: hJAK2 (Homo sapiens (Human), UniProt O60674); assay: hJAK2 LANCE TR-FRET enzymatic assay; type: biochemical; conditions: read-out: JAK2 IC50
Chain of hJAK2 (O60674 whole entry): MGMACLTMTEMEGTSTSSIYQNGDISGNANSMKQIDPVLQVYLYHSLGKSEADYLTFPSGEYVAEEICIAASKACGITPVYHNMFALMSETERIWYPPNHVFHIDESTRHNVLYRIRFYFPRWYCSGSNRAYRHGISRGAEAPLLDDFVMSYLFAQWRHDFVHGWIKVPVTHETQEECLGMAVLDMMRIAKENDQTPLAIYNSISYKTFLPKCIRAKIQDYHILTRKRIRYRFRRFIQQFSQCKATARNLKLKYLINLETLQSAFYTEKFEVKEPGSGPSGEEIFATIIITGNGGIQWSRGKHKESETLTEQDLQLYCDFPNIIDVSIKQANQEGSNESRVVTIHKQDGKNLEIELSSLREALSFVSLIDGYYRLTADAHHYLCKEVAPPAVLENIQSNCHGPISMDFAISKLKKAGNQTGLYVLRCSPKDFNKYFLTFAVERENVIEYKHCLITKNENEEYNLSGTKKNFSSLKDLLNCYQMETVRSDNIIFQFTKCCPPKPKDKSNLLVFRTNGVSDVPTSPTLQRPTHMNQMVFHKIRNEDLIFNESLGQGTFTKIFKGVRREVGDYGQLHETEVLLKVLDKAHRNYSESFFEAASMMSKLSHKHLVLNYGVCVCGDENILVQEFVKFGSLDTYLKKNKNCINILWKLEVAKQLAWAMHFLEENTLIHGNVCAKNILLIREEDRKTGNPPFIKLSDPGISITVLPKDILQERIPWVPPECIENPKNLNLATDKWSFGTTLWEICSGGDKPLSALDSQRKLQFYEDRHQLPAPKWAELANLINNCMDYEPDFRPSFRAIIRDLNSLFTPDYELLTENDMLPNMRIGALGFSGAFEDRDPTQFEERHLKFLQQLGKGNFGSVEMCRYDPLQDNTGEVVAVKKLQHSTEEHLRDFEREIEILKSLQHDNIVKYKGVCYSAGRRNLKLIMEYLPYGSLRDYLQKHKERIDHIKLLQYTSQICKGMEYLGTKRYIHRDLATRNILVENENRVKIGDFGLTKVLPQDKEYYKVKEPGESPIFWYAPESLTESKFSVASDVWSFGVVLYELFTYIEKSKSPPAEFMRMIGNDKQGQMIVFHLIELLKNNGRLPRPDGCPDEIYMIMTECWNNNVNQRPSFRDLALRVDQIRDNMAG

Chain of IKKε (Q14164 whole entry): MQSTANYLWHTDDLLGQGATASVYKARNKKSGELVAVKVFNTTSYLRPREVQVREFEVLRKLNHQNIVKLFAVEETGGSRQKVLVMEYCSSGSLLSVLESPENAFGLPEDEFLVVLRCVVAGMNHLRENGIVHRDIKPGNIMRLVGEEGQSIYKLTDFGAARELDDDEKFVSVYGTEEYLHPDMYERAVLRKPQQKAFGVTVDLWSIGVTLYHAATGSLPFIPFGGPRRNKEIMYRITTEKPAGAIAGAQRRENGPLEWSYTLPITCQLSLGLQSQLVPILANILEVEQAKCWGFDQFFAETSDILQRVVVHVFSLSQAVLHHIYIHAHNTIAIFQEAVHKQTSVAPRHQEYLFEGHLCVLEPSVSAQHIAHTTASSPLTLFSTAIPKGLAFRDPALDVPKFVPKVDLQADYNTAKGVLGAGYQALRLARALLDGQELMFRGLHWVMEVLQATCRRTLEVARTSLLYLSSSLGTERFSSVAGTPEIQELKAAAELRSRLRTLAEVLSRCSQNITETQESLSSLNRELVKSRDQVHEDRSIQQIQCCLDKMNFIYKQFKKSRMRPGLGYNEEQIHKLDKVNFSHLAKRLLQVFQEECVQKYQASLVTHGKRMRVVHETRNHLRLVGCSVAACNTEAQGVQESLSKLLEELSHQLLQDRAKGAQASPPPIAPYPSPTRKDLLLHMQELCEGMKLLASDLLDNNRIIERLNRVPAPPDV
Chain of TBK1 (Q9UHD2 whole entry): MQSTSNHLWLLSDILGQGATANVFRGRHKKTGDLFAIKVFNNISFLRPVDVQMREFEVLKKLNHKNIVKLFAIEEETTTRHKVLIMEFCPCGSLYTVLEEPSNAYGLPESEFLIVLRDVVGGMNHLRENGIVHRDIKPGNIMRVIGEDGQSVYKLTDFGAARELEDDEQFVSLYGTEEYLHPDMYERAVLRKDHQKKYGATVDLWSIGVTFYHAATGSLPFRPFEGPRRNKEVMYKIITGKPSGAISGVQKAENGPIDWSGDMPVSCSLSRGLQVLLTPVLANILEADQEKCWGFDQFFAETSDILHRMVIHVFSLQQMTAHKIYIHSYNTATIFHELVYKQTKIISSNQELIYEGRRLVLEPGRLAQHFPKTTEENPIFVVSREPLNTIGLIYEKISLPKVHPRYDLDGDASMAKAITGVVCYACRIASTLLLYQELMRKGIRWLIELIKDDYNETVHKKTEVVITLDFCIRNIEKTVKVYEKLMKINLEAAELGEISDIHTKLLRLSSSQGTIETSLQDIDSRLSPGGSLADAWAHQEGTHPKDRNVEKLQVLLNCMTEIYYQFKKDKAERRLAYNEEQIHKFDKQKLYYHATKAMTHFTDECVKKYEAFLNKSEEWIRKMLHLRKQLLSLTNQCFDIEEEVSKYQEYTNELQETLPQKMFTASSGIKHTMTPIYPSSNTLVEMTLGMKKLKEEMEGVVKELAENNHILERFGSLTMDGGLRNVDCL

Row | IC50 [1] | IC50 [2] | IC50 [3] | Compound
1 | 29 nM | 7 nM | 959 nM | C[C@@H]1OC(=O)N[C@@H]1C(=O)N1CC[C@H](Oc2ccc(-c3ncnc(Nc4ccc(N5CCN(C6COC6)CC5)cc4)n3)cc2C#N)[C@H](F)C1 [Example 524, 2-(((3R,4S)-3-fluoro-1-((4S,5S)-5-methyl-2-oxooxazolidine-4-carbonyl)piperidin-4-yl)oxy)-5-(4-((4-(4-(oxetan-3-yl)piperazin-1-yl)phenyl)amino)-1,3,5-triazin-2-yl)benzonitrile]
2 | 3 nM | 3 nM | 390 nM | N#Cc1cc(-c2ncnc(Nc3ccc(N4CCN(C5COC5)CC4)cc3)n2)ccc1O[C@H]1CCN(C(=O)c2coc(=O)[nH]2)C[C@H]1F [Example 525, 2-(((3R,4S)-3-fluoro-1-(2-oxo-2,3-dihydrooxazole-4-carbonyl)piperidin-4-yl)oxy)-5-(4-((4-(4-(oxetan-3-yl)piperazin-1-yl)phenyl)amino)-1,3,5-triazin-2-yl)benzonitrile]
3 | 19 nM | 9 nM | 447 nM | Cc1n[nH]c(C(=O)N2CC[C@H](Oc3ccc(-c4ncnc(Nc5ccc(N6CCN(C7COC7)CC6)cc5)n4)cc3C#N)[C@H](F)C2)c1C [Example 526, 2-(((3R,4S)-1-(3,4-dimethyl-1H-pyrazole-5-carbonyl)-3-fluoropiperidin-4-yl)oxy)-5-(4-((4-(4-(oxetan-3-yl)piperazin-1-yl)phenyl)amino)-1,3,5-triazin-2-yl)benzonitrile]
4 | 8 nM | 5 nM | 323 nM | Cc1c[nH]c(C(=O)N2CC[C@H](Oc3ccc(-c4ncnc(Nc5ccc(N6CCN(C7COC7)CC6)cc5)n4)cc3C#N)[C@H](F)C2)n1 [Example 527, 2-(((3R,4S)-3-fluoro-1-(4-methyl-1H-imidazole-2-carbonyl)piperidin-4-yl)oxy)-5-(4-((4-(4-(oxetan-3-yl)piperazin-1-yl)phenyl)amino)-1,3,5-triazin-2-yl)benzonitrile]
5 | 20 nM | 8 nM | 368 nM | Cc1cn[nH]c1C(=O)N1CC[C@H](Oc2ccc(-c3ncnc(Nc4ccc(N5CCN(C6COC6)CC5)cc4)n3)cc2C#N)[C@H](F)C1 [Example 528, 2-(((3R,4S)-3-fluoro-1-(4-methyl-1H-pyrazole-5-carbonyl)piperidin-4-yl)oxy)-5-(4-((4-(4-(oxetan-3-yl)piperazin-1-yl)phenyl)amino)-1,3,5-triazin-2-yl)benzonitrile]
6 | 4 nM | 3 nM | 356 nM | N#Cc1cc(-c2ncnc(Nc3ccc(N4CCN(C5COC5)CC4)cc3)n2)ccc1O[C@H]1CCN(C(=O)[C@@H]2CC(=O)N2)C[C@H]1F [Example 529, 2-(((3R,4S)-3-fluoro-1-((S)-4-oxoazetidine-2-carbonyl)piperidin-4-yl)oxy)-5-(4-((4-(4-(oxetan-3-yl)piperazin-1-yl)phenyl)amino)-1,3,5-triazin-2-yl)benzonitrile]
7 | 3 nM | 4 nM | 55 nM | COc1cc(Nc2ncnc(-c3ccc(O[C@@H]4CCC(=O)NC4)c(C#N)c3)n2)ccc1N1CCN(C2COC2)CC1 [Example 531, (R)-5-(4-((3-methoxy-4-(4-(oxetan-3-yl)piperazin-1-yl)phenyl)amino)-1,3,5-triazin-2-yl)-2-((6-oxopiperidin-3-yl)oxy)benzonitrile]
8 | 7 nM | 4 nM | 88 nM | Cc1cc(Nc2ncnc(-c3ccc(O[C@H]4CCN(C(=O)CCO)C[C@H]4F)c(C#N)c3)n2)ccc1N1CCN(C2COC2)CC1 [Example 533, 2-(((3R,4S)-3-fluoro-1-(3-hydroxypropanoyl)piperidin-4-yl)oxy)-5-(4-((3-methyl-4-(4-(oxetan-3-yl)piperazin-1-yl)phenyl)amino)-1,3,5-triazin-2-yl)benzonitrile]
9 | 7 nM | 4 nM | 32 nM | Cc1cc(Nc2ncnc(-c3ccc(N4C[C@H](O)C[C@@H]4C)c(C#N)c3)n2)ccc1N1CCN(C2COC2)CC1 [Example 534, 2-((2S,4R)-4-hydroxy-2-methylpyrrolidin-1-yl)-5-(4-((3-methyl-4-(4-(oxetan-3-yl)piperazin-1-yl)phenyl)amino)-1,3,5-triazin-2-yl)benzonitrile]
10 | 3 nM | 3 nM | 904 nM | C[C@H]1CN(c2ccc(Nc3ncnc(-c4ccc(O[C@H]5CCN(C(=O)[C@@H]6CCC(=O)N6)C[C@H]5F)c(C#N)c4)n3)cc2)CCN1C1COC1 [Example 535, 2-(((3R,4S)-3-fluoro-1-((S)-5-oxopyrrolidine-2-carbonyl)piperidin-4-yl)oxy)-5-(4-((4-((S)-3-methyl-4-(oxetan-3-yl)piperazin-1-yl)phenyl)amino)-1,3,5-triazin-2-yl)benzonitrile]
11 | 1 nM | 2 nM | 101 nM | Cc1cc(Nc2ncnc(-c3ccc(O[C@H]4CCN(C(=O)[C@@H]5CCC(=O)N5)C[C@H]4F)c(C#N)c3)n2)ccc1N1CCN(C2COC2)CC1 [Example 536, 2-(((3R,4S)-3-fluoro-1-((S)-5-oxopyrrolidine-2-carbonyl)piperidin-4-yl)oxy)-5-(4-((3-methyl-4-(4-(oxetan-3-yl)piperazin-1-yl)phenyl)amino)-1,3,5-triazin-2-yl)benzonitrile]
12 | 18 nM | 8 nM | ≥ 1000 nM | CC(=O)Nc1ccc(Nc2ncnc(-c3ccc(O[C@H]4CCN(C(=O)[C@@H]5CCC(=O)N5)C[C@H]4F)c(C#N)c3)n2)cn1 [Example 537, N-(5-((4-(3-cyano-4-(((3R,4S)-3-fluoro-1-((S)-5-oxopyrrolidine-2-carbonyl)piperidin-4-yl)oxy)phenyl)-1,3,5-triazin-2-yl)amino)pyridin-2-yl)acetamide]
13 | 14 nM | 7 nM | ≥ 1000 nM | CCOc1ccc(Nc2ncnc(-c3ccc(O[C@H]4CCN(C(=O)[C@@H]5CCC(=O)N5)C[C@H]4F)c(C#N)c3)n2)cn1 [Example 538, 5-(4-((6-ethoxypyridin-3-yl)amino)-1,3,5-triazin-2-yl)-2-(((3R,4S)-3-fluoro-1-((S)-5-oxopyrrolidine-2-carbonyl)piperidin-4-yl)oxy)benzonitrile]
14 | 2 nM | 3 nM | 519 nM | C[C@H](O)C(=O)N1CC[C@H](Oc2ccc(-c3ncnc(Nc4cccc(CN5CCOCC5)c4)n3)cc2C#N)[C@H](F)C1 [Example 539, 2-(((3R,4S)-3-fluoro-1-((S)-2-hydroxypropanoyl)piperidin-4-yl)oxy)-5-(4-((3-(morpholinomethyl)phenyl)amino)-1,3,5-triazin-2-yl)benzonitrile]
15 | 21 nM | 20 nM | ≥ 1000 nM | CC(=O)Nc1ccc(Nc2ncnc(-c3ccc(O[C@H]4CCN(C(=O)[C@H](C)O)C[C@H]4F)c(C#N)c3)n2)cn1 [Example 540, N-(5-((4-(3-cyano-4-(((3R,4S)-3-fluoro-1-((S)-2-hydroxypropanoyl)piperidin-4-yl)oxy)phenyl)-1,3,5-triazin-2-yl)amino)pyridin-2-yl)acetamide]
16 | 17 nM | 15 nM | ≥ 1000 nM | CCOc1ccc(Nc2ncnc(-c3ccc(O[C@H]4CCN(C(=O)[C@H](C)O)C[C@H]4F)c(C#N)c3)n2)cn1 [Example 541, 5-(4-((6-ethoxypyridin-3-yl)amino)-1,3,5-triazin-2-yl)-2-(((3R,4S)-3-fluoro-1-((S)-2-hydroxypropanoyl)piperidin-4-yl)oxy)benzonitrile]

Source: patent US10040781B2, “Tank-binding kinase inhibitor compounds” (Gilead Sciences, Inc., priority 2014, dated 2018)
